Results as given in patent publication US12006321B2, “Substituted pyrazolo[1,5-a]pyrimidines as apelin receptor agonists” (Sanford Burnham Prebys Medical Discovery Institute, priority 2017, dated 2024).
pEC50: −log10 of the molar value.

Target: T1, human apelin receptor (APJ, APLNR) (Homo sapiens, UniProt P35414)
T1 construct: host or cells: Chinese hamster ovary (CHO) cells, stably integrated receptor
T1 sequence (P35414 1-380): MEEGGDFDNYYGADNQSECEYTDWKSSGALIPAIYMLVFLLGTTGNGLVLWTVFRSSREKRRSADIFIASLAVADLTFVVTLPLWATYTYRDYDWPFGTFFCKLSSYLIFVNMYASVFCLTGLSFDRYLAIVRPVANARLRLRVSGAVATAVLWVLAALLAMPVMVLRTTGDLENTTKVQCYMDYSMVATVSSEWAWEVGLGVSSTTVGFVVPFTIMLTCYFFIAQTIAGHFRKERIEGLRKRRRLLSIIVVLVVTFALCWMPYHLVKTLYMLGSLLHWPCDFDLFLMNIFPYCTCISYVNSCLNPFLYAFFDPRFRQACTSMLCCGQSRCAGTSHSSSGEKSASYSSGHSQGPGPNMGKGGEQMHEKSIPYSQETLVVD
Assay: cell-based cAMP assay (TR-FRET) in Chinese hamster ovary cells expressing the apelin receptor
Settings: EC50 = 50% of control (apelin-13, 1 nM) response; cAMP in CHO cells, 0.5 h incubation; read-out: Potency Category
Method: This example illustrates the biological activity of various compounds tested against the APJ receptor.
Commercially available cell lines were used to screen chemical libraries to identify compounds that potently and selectively activated the human apelin receptor. The assays disclosed herein were performed using cell lines from DiscoveX, Inc.
Biological activity was determined to the cell-based assay. This assay detects activation of the receptor by reporting on intracellular cyclic adenosine monophosphate (cAMP) level. Chinese hamster ovary cells engineered to express the stably integrated human appellant receptor (APJ, AGTRL-one, APLNR), pleaded into the wells of the microtiter plate. Cells were stimulated with […] to increase intracellular cyclic AMP. Immediately following, compounds were added to the range of final concentrations 0.0-100 μM, in DMSO (not to exceed a final DMSO concentration greater than 1% v/v), and allowed to incubate with the cells for 0.5 h. At the end of the incubation, cells were lysed to stop APJ signaling and cAMP was quantified using a commercially available competitive immunoassay kit that applies homogenous time-resolved florescence energy transfer (TR-FRET). The assay is based on the competition between a europium (Eu) chelate-labeled cAMP donor tracer and cellular cAMP for binding sites on a cAMP-specific monoclonal antibody labeled with an acceptor fluorophore. When antibodies are bound to the cAMP tracer light emissions at 320 nm stimulate the energy transfer from the donor to the acceptor, which in turn emits light at 665 nm. In the presence of competitive unlabeled cAMP (derived from the activity of the receptor or forskolin-stimulated production of cAMP), the labelled cAMP tracer is dissociated from the cAMP antibody, resulting in a loss of FRET signal. The amount of light emitted by the FRET is inversely proportional to the cAMP generated by the cell/receptor system. Potency and efficacy at APJ are reported in reference to the canonical APJ receptor agonist apelin-13 when tested at 1 nM.
Compound competency is reported as the effective concentration required to effect 50% (EC 50) of the control (apelin—13, 1 nM) response in micromole are (μM) units. Compound efficacy (% response) is reported as a percentage of the maximal apein-13 response at 1 nM (control). Potencies were calculated by fitting a four-point logistic curve to concentration response consisting of at least 10 discrete data points spanning effective range of the compounds in the cell-based assay that measures cAMP. In Table 1, the Potency Categories are A, B, C and D. Category A EC50>500 nM; Category B 200<EC50<500 nM; Category C 100<EC50<200 nM; Category D<100 nM.

| pEC50 | Compound |
| --- | --- |
| < 6.30 | CCc1cc(C(=O)O)nc2c(-c3ccccc3)c(C)nn12 [Compound 34, 7-ethyl-2-methyl-3-phenyl-8-hydropyrazolo[1,5-a]pyrimidine-5-carboxylic acid] |
| < 6.30 | CCCc1cc(C(=O)OCC)nc2c(-c3ccccc3)c(C)nn12 [Compound 35, ethyl 2-methyl-3-phenyl-7-propyl-8-hydropyrazolo[1,5-a]pyrimidine-5-carboxylate] |
| < 6.30 | CCCc1cc(C(=O)O)nc2c(-c3ccccc3)c(C)nn12 [Compound 36, 2-methyl-3-phenyl-7-propyl-8-hydropyrazolo[1,5-a]pyrimidine-5-carboxylic acid] |
| < 6.30 | COC(=O)c1nc2c(-c3ccccc3)c(C)nn2c(C(C)C)c1C [Compound 37, methyl 2,6-dimethyl-7-(methylethyl)-3-phenyl-8-hydropyrazolo[1,5-a]pyrimidine-5-carboxylate] |
| < 6.30 | Cc1nn2c(C(C)C)c(C)c(C(=O)O)nc2c1-c1ccccc1 [Compound 38, 2,6-dimethyl-7-(methylethyl)-3-phenyl-8-hydropyrazolo[1,5-a]pyrimidine-5-carboxylic acid] |
| < 6.30 | CCOC(=O)c1cc(C(C)C)n2nc(C)c(-c3c(C)cccc3C)c2n1 [Compound 39, ethyl 3-(2,6-dimethylphenyl)-2-methyl-7-(methylethyl)-8-hydropyrazolo[1,5-a]pyrimidine-5-carboxylate] |
| < 6.30 | CCOC(=O)c1cc(C(C)C)n2nc(C)c(-c3c(OC)cccc3OC)c2n1 [Compound 40, ethyl 3-(2,6-dimethoxyphenyl)-2-methyl-7-(methylethyl)-8-hydropyrazolo[1,5-a]pyrimidine-5-carboxylate] |
| > 7.00 | Cc1cccc(C)c1-c1c(C)nn2c(C(C)C)cc(C(=O)O)nc12 [Compound 41, 3-(2,6-dimethylphenyl)-2-methyl-7-(methylethyl)-8-hydropyrazolo[1,5-a]pyrimidine-5-carboxylic acid] |
| < 6.30 | COc1cccc(OC)c1-c1c(C)nn2c(C(C)C)cc(C(=O)O)nc12 [Compound 42, 3-(2,6-dimethoxyphenyl)-2-methyl-7-(methylethyl)-8-hydropyrazolo[1,5-a]pyrimidine-5-carboxylic acid] |
| < 6.30 | CC(C)c1cc(C(=O)O)nc2c3c(nn12)CCCC3 [Compound 43, 4-(methylethyl)-5,7,8,9,10-pentahydro-5H-pyrimidino[1,2-b]indazole-2-carboxylic acid] |
| < 6.30 | CCOC(=O)c1cc(C(C)C)n2nc(C)c(-c3ccc(C)cc3C)c2n1 [Compound 44, ethyl 3-(2,4-dimethylphenyl)-2-methyl-7-(methylethyl)-8-hydropyrazolo[1,5-a]pyrimidine-5-carboxylate] |
| < 6.30 | Cc1ccc(-c2c(C)nn3c(C(C)C)cc(C(=O)O)nc23)c(C)c1 [Compound 45, 3-(2,4-dimethylphenyl)-2-methyl-7-(methylethyl)-8-hydropyrazolo[1,5-a]pyrimidine-5-carboxylic acid] |
| < 6.30 | CCOC(=O)c1cc(C(C)C)n2nc(C)c(-c3c(C)cc(OC)cc3C)c2n1 [Compound 46, ethyl 3-(4-methoxy-2,6-dimethylphenyl)-2-methyl-7-(methylethyl)-8-hydropyrazolo[1,5-a]pyrimidine-5-carboxylate] |
| < 6.30 | CCOC(=O)c1cc(C(C)C)n2nc(C)c(-c3c(C)cc(F)cc3C)c2n1 [Compound 47, ethyl 3-(4-fluoro-2,6-dimethylphenyl)-2-methyl-7-(methylethyl)-8-hydropyrazolo[1,5-a]pyrimidine-5-carboxylate] |
| < 6.30 | COc1cc(C)c(-c2c(C)nn3c(C(C)C)cc(C(=O)O)nc23)c(C)c1 [Compound 48, 3-(4-methoxy-2,6-dimethylphenyl)-2-methyl-7-(methylethyl)-8-hydropyrazolo[1,5-a]pyrimidine-5-carboxylic acid] |
| < 6.30 | CCOC(=O)c1cc(C(C)C)n2nc(C)c(-c3c(C)cccc3F)c2n1 [Compound 49, ethyl 3-(6-fluoro-2-methylphenyl)-2-methyl-7-(methylethyl)-8-hydropyrazolo[1,5-a]pyrimidine-5-carboxylate] |

| pEC50 | Compound |
| --- | --- |
| 6.70 to 7.00 | Cc1cc(F)cc(C)c1-c1c(C)nn2c(C(C)C)cc(C(=O)O)nc12 [Compound 50, 3-(4-fluoro-2,6-dimethylphenyl)-2-methyl-7-(methylethyl)-8-hydropyrazolo[1,5-a]pyrimidine-5-carboxylic acid] |
| 6.30 to 6.70 | Cc1cccc(F)c1-c1c(C)nn2c(C(C)C)cc(C(=O)O)nc12 [Compound 51, 3-(6-fluoro-2-methylphenyl)-2-methyl-7-(methylethyl)-8-hydropyrazolo[1,5-a]pyrimidine-5-carboxylic acid] |
| < 6.30 | CCOC(=O)c1cc(C(C)C)n2ncc(-c3c(C)cccc3C)c2n1 [Compound 52, ethyl 3-(2,6-dimethylphenyl)-7-(methylethyl)-8-hydropyrazolo[1,5-a]pyrimidine-5-carboxylate] |
| < 6.30 | Cc1cccc(C)c1-c1cnn2c(C(C)C)cc(C(=O)O)nc12 [Compound 53, 3-(2,6-dimethylphenyl)-7-(methylethyl)-8-hydropyrazolo[1,5-a]pyrimidine-5-carboxylic acid] |
| < 6.30 | CCCc1c(C)c(C(=O)OCC)nc2c(-c3c(C)cccc3C)c(C)nn12 [Compound 54] |
| < 6.30 | CCCc1cc(C(=O)O)nc2c(-c3c(C)cccc3C)c(C)nn12 [Compound 55, 3-(2,6-dimethylphenyl)-2-methyl-7-propyl-8-hydropyrazolo[1,5-a]pyrimidine-5-carboxylic acid] |
| < 6.30 | CCOC(=O)c1cc(C)n2nc(C)c(-c3c(C)cccc3C)c2n1 [Compound 56, ethyl 3-(2,6-dimethylphenyl)-2,7-dimethyl-8-hydropyrazolo[1,5-a]pyrimidine-5-carboxylate] |
| < 6.30 | Cc1cccc(C)c1-c1c(C)nn2c(C)cc(C(=O)O)nc12 [Compound 57, 3-(2,6-dimethylphenyl)-2,7-dimethyl-8-hydropyrazolo[1,5-a]pyrimidine-5-carboxylic acid] |
| < 6.30 | CCOC(=O)c1cc(CC)n2nc(C)c(-c3c(C)cccc3C)c2n1 [Compound 58, ethyl 3-(2,6-dimethylphenyl)-7-ethyl-2-methyl-8-hydropyrazolo[1,5-a]pyrimidine-5-carboxylate] |
| < 6.30 | CCOC(=O)c1cc(C2CC2)n2nc(C)c(-c3c(C)cccc3C)c2n1 [Compound 59, ethyl 3-(2,6-dimethylphenyl)-7-cyclopropyl-2-methyl-8-hydropyrazolo[1,5-a]pyrimidine-5-carboxylate] |
| < 6.30 | CCOC(=O)c1cc(C2CCC2)n2nc(C)c(-c3c(C)cccc3C)c2n1 [Compound 60, ethyl 3-(2,6-dimethylphenyl)-7-cyclobutyl-2-methyl-8-hydropyrazolo[1,5-a]pyrimidine-5-carboxylate] |
| 6.70 to 7.00 | Cc1cccc(C)c1-c1c(C)nn2c(C3CCC3)cc(C(=O)O)nc12 [Compound 61, 3-(2,6-dimethylphenyl)-7-cyclobutyl-2-methyl-8-hydropyrazolo[1,5-a]pyrimidine-5-carboxylic acid] |
| < 6.30 | Cc1cccc(C)c1-c1c(C)nn2c(C(C)C)cc(CO)nc12 [Compound 62, [3-(2,6-dimethylphenyl)-2-methyl-7-(methylethyl)-8-hydropyrazolo[1,5-a]pyrimidin-5-yl]methan-1-ol] |
| < 6.30 | Cc1cccc(C)c1-c1c(C)nn2c(C(C)C)cc(C(O)C(F)(F)F)nc12 (stereo not shown) [Compound 63, 1-[3-(2,6-dimethylphenyl)-2-methyl-7-(methylethyl)(8-hydropyrazolo[1,5-a]pyrimidin-5-yl)]-2,2,2-trifluoroethan-1-ol] |
| < 6.30 | Cc1cccc(C)c1-c1c(C)nn2c(C(C)C)cc(C(=O)C(F)(F)F)nc12 [Compound 64, 1-[3-(2,6-dimethylphenyl)-2-methyl-7-(methylethyl)(8-hydropyrazolo[1,5-a]pyrimidin-5-yl)]-2,2,2-trifluoroethan-1-one] |
